Measured values reported in ChEMBL document CHEMBL1221281, “Discovery of 2-(4-((1H-1,2,4-triazol-1-yl)methyl)-5-(4-bromophenyl)-1-(2-chlorophenyl)-1H-pyrazol-3-yl)-5-tert-butyl-1,3,4-thiadiazole (GCC2680) as a potent, selective and orally efficacious cannabinoid-1 receptor antagonist” (Bioorg Med Chem, 2010).

Legend:
Cannabinoid receptor 1 = Cannabinoid receptor 1 (Rattus norvegicus, UniProt P20272)
Description: Displacement of [3H]CP-55940 from CB1 receptor in Sprague-Dawley rat cerebellum after 1 hr by liquid scintillation counting

[1] = Selectivity ratio of IC50 for human CB2 receptor to IC50 for CB1 receptor in Sprague-Dawley rat cerebellum; type: tissue-based
Cannabinoid receptor 2 = Cannabinoid receptor 2 (Homo sapiens, UniProt P34972); assay: Displacement of [3H]WIN-55212-2 from human CB2 receptor expressed in CHO-K1 cells after 1 hr by liquid scintillation counting; type: cell-based
Mus musculus = assay: Antiobesity activity in diet-induced obesity C57BL/6 mouse model assessed as reduction of body weight at 10 mg/kg, po qd for 14 days; type: functional; set-up: scale not given: the % may be the effect or the level left

Chain of Cannabinoid receptor 2 (P34972 whole entry): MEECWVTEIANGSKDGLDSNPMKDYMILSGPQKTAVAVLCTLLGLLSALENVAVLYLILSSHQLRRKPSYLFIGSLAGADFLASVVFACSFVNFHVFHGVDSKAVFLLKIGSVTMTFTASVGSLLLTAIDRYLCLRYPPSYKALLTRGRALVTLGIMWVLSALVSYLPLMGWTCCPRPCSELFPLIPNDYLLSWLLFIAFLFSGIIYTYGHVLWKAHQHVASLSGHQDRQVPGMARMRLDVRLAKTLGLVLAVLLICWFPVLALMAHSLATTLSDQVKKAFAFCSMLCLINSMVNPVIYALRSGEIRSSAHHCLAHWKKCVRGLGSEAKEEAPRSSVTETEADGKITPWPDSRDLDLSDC
Chain of Cannabinoid receptor 1 (P20272 whole entry): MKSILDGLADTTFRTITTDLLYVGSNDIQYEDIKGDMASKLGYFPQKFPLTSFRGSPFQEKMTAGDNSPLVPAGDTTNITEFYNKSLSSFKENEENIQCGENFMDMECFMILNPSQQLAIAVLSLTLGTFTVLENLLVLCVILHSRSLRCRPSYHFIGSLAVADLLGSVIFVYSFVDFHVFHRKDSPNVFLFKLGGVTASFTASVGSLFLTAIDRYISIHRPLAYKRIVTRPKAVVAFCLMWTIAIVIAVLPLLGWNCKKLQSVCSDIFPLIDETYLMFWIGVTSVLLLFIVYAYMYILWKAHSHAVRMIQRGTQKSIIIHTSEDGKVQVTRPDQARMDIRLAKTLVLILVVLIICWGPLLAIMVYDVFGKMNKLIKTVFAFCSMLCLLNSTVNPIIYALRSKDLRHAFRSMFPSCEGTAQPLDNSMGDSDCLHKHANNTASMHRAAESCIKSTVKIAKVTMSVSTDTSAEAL

Row | Compound | IC50 (Cannabinoid receptor 1) | Ratio IC50 [1] | IC50 (Cannabinoid receptor 2) | Activity (Mus musculus)
1 | FC(F)(F)C1(c2nnc(-c3nn(-c4ccccc4Cl)c(-c4ccc(Br)cc4)c3Cn3cncn3)s2)CCC1 | 0.848 nM | 87 | 73.6 nM | 
2 | CC1(c2nnc(-c3nn(-c4ccc(Cl)cc4Cl)c(-c4ccc(Br)cc4)c3Cn3cncn3)s2)CC1 | 2.91 nM |  |  | 23.68%
3 | CC1(c2nnc(-c3nn(-c4ccc(Cl)cc4Cl)c(-c4ccc(Cl)cc4)c3Cn3cncn3)s2)CC1 | 2.4 nM |  |  | 23.68%
4 | Cc1ccc(C2(c3nnc(-c4nn(-c5ccc(Cl)cc5Cl)c(-c5ccc(Cl)cc5)c4Cn4cncn4)s3)CC2)cc1 |  |  |  | 23.68%
5 | CC(C)(C)c1nnc(-c2nn(-c3ccccc3Cl)c(-c3ccc(Cl)cc3)c2Cn2cncn2)s1 |  |  |  | 23.68%
6 | Clc1ccc(-n2nc(-c3nnc(C4(c5ccccc5)CC4)s3)c(Cn3cncn3)c2-c2ccc(Br)cc2)c(Cl)c1 | 2.23 nM |  |  | 23.68%
7 | FC(F)(F)C1(c2nnc(-c3nn(-c4ccc(Cl)cc4Cl)c(-c4ccc(Br)cc4)c3Cn3cncn3)s2)CCC1 | 3.27 nM |  |  | 23.68%
8 | FC(F)(F)C1(c2nnc(-c3nn(-c4ccc(Cl)cc4Cl)c(-c4ccc(Cl)cc4)c3Cn3cncn3)s2)CC1 |  | 1590 | 3630 nM | 23.68%
9 | FC(F)(F)C1(c2nnc(-c3nn(-c4ccccc4Cl)c(-c4ccc(Cl)cc4)c3Cn3cncn3)s2)CCC1 | 1.01 nM |  |  | 23.68%
10 | FC(F)(F)C1(c2nnc(-c3nn(-c4ccccc4Cl)c(-c4ccc(Br)cc4)c3Cn3cncn3)s2)CC1 | 0.992 nM | 125 | 124 nM | 
11 | FC(F)(F)c1ccccc1-n1nc(-c2nnc(C3(C(F)(F)F)CCC3)s2)c(Cn2cncn2)c1-c1ccc(Cl)cc1 | 6.48 nM | 11.8 | 76.8 nM | 23.68%
12 | FC(F)(F)c1ccccc1-n1nc(-c2nnc(C3(C(F)(F)F)CCC3)s2)c(Cn2cncn2)c1-c1ccc(Br)cc1 | 4.38 nM | 6.3 | 27.6 nM | 
13 | Clc1ccc(-c2c(Cn3cncn3)c(-c3nnc(C4(c5ccc(Cl)cc5)CC4)s3)nn2-c2ccc(Cl)cc2Cl)cc1 |  |  |  | 23.68%
14 | CC(C)(C)c1nnc(-c2nn(-c3ccc(Cl)cc3Cl)c(-c3ccc(Cl)cc3)c2Cn2cncn2)s1 | 1.73 nM | 659 | 1140 nM | 23.68%
15 | FC(F)(F)C1(c2nnc(-c3nn(-c4ccc(Cl)cc4Cl)c(-c4ccc(Br)cc4)c3Cn3cncn3)s2)CC1 | 0.991 nM |  |  | 23.68%
16 | Cc1ccc(C2(c3nnc(-c4nn(-c5ccc(Cl)cc5Cl)c(-c5ccc(Br)cc5)c4Cn4cncn4)s3)CC2)cc1 | 2.74 nM |  |  | 23.68%
17 | Clc1ccc(-c2c(Cn3cncn3)c(-c3nnc(C4(c5ccccc5)CC4)s3)nn2-c2ccc(Cl)cc2Cl)cc1 |  |  |  | 23.68%
18 | Clc1ccc(C2(c3nnc(-c4nn(-c5ccc(Cl)cc5Cl)c(-c5ccc(Br)cc5)c4Cn4cncn4)s3)CC2)cc1 | 0.877 nM |  |  | 23.68%
19 | Clc1ccc(-c2c(Cn3cncn3)c(-c3nnc(C4(c5ccc(Cl)cc5)CC4)s3)nn2-c2ccccc2Cl)cc1 | 0.966 nM | 274 | 265 nM | 23.68%
20 | FC(F)(F)C1(c2nnc(-c3nn(-c4ccccc4Cl)c(-c4ccc(Cl)cc4)c3Cn3cncn3)s2)CC1 | 1.66 nM |  |  | 23.68%
